Measured values as given in patent US20070219208A1, “Methods for Treating Cancer” (priority 2006, published 2007).
“Also recorded” adds a separate entry of the source.

Legend:
Format in all cases: cell-based
[1] = tested on: arginase II in MCF-7 cells; experiment: Arginase II transcript levels by RT-PCR; conditions: mevalonate 20 μM
Description: Following the treatments, medium was aspirated and 1 ml of TRIzol reagent (Invitrogen) was added and total RNA was extracted using the manufacturer's protocol. Five μg of RNA was used for the first strand cDNA synthesis using a first strand cDNA synthesis kit (Amersham Biosciences). Four μl of the cDNA mixture was used to amplify mRNA's of iNOS [(5′-[…]-3′, SEQ ID NO:1) and (5′-[…]-3′, SEQ ID NO:2)], arginase I [(5′-[…]-3′, SEQ ID NO:3) and (5′-[…]-3′, SEQ ID NO:4)], arginase II [(5′-[…]-3′, SEQ ID NO:5) and (5′-[…]-3′, SEQ ID NO:6)], and eNOS [(5′-[…]-3′, SEQ ID NO:7) and (5′-[…]-3′, SEQ ID NO:8)].

[2] = tested on: NO2-/NO3- levels in MCF-7 cells; experiment: Nitrite and nitrate measurements by chemiluminescence (NO analyzer); conditions: with simvastatin or fluvastatin (10 μM), 40 h; mevalonate 20 μM, 1400 W 10 μM, sepiapterin 50 μM; compared to statin alone
Description: Briefly, following treatments, cells were washed three times with DPBS after aspirating the medium. To this, 1 ml of Hanks' balanced salt mixture containing 25 μM L-arginine was added and incubated for 30 min at 37° C. The medium was collected and centrifuged for 5 min at 5000 rpm, and 50 μl of the clear supernatant was used for nitrate and nitrite analysis. Each sample was analyzed in triplicate.

[3] = tested on: cyclin D1, cyclin E and p27 in MCF-7 cells; experiment: Cell cycle protein levels by Western analysis (cyclin D1, cyclin E, p27); conditions: 1400 W 10 μM or mevalonate 20 μM
Description: A (Table): The cell cycle distribution of MCF-7 cells treated with either simvastatin or fluvastatin (5-10 μM) for 40 h in the presence or 1400 W (10 μM) or mevalonate (20 μM). The cell sorting was performed by flow cytometry as described in “Materials and Methods.” B: Cells were treated with simvastatin or fluvastatin (10 μM) in the presence or absence of 1400 W (10 μM) or mevalonate (20 μM) for 40 h and cyclins D1 and E protein levels were measured by the Western analysis using the corresponding polyclonal or monoclonal antibodies. Data are representative of three separate experiments.
After treatment with statins, cells were washed with ice-cold DPBS and resuspended in 150 μl of radioimmune precipitation assay buffer (20 mM Tris-HCl, pH 7.4, 2.5 mM EDTA, 1% Triton X-100, 1% sodium deoxycholate, 1% SDS, 100 mM NaCl, 100 mM sodium fluoride) containing 1 mM sodium vanadate, 10 μg/ml aprotinin, 10 μg/ml leupeptin, and 10 μg/ml pepstatin inhibitors. Cells were homogenized by passing the suspension through a 25-gauge needle (20 strokes). The lysate was centrifuged at 750×g for 10 min at 4° C. to pellet out the nuclei. The remaining supernatant was centrifuged for 30 min at 12,000×g. Protein was determined using the Lowry method and 50 μg of the lysate was used for the Western blot analysis. […] The band was detected using the ECL method (Amersham Biosciences).

[4] = tested on: MCF-7 cells; experiment: 3H-thymidine uptake (DNA synthesis / cell proliferation); conditions: mevalonate 20 μM with simvastatin or fluvastatin
Description: Thymidine Uptake Studies:
DNA synthesis was measured by monitoring the uptake of tritiated thymidine, [^3H]TdR (Perkin-Elmer, Boston, Mass.). Cells (5×10^5/ml) were cultured with different concentrations of simvastatin or fluvastatin (0-10 μM) in the presence or absence of mevalonate (20 μM), 1400 W, or sepiapterin. Cells were pulse-chased with [^3H]TdR [0.5 μCi (0.185 MBq)/well during the last 3 h of a 24 h culture, harvested onto glass filters with an automatic cell harvester (Cambridge Technology, Cambridge, Mass.), and counted using the LKB Betaplate scintillation counter (Wallac, Gaithersburg, Md.). All experiments were performed in triplicate and repeated three times.

[5] = tested on: MCF-7 cells; experiment: Apoptosis by TUNEL assay; conditions: with simvastatin or fluvastatin 5-10 μM, 48 h; 1400 W 10 μM, sepiapterin 50 μM, mevalonate 20 μM
Source text: Measurement of Apoptosis by TUNEL Assay:
The terminal deoxynucleotidyl transferase-mediated nick-end labeling (TUNEL) assay was used for microscopic detection of apoptosis (Kotamraju S, et al. J Biol Chem, 277:17179-87, 2002). This assay is based on labeling of 3′ free hydroxyl ends of the fragmented DNA with fluorescein-dUTP catalyzed by terminal deoxynucleotidyl transferase. Procedures were followed according to a commercially available kit (ApoAlert) from Clontech. […] The apoptotic cells were detected by fluorescence microscopy equipped with rhodamine and FITC filters. The quantification of apoptosis was performed using the Metamorph image analysis package.
Under these conditions, NO2^−/NO3^− levels were decreased (FIG. 4B). […] Further verification that iNOS is involved in […] NO was obtained from inhibition of geranylgeranylation and farnesylation. […] In contrast, FTI-277 (farnesylation inhibitor) and sepiapterin had no effect on NO2^−/NO3^− levels (FIG. 4C). […] In the TUNEL assay, cells were treated with simvastatin or fluvastatin (5-10 μM) for 48 h in the presence or absence of 1400 W (10 μM), sepiapterin (50 μM) or mevalonate (20 μM) and stained for TUNEL-positive cells as an index of DNA fragmentation monitored by fluorescence microscopy (original magnification, ×100). Photographs were taken for the overlaid images of propidium iodide-and FITC-stained cells (TUNEL-positive cells). Yellow and red denote apoptotic and nonapoptotic cells, respectively. We observed that the TUNEL positive staining was enhanced in statin-treated MCF-7 cells. […] Pretreatment with 1400 W or mevalonate caused a decrease in the TUNEL positive cells.

For CC(O)(CCO)CC(=O)O (centres unmarked) [mevalonate], the “effect on statin-induced down-regulation of Arg II level” value [1] was “reversed”, the “effect on statin-induced NO / NO2-/NO3- levels” value [2] was “inhibited; also recorded: suppressed” and the “effect on statin-induced decrease of cyclin D1 and cyclin E” value [3] was “restored in part”. For the same compound, the “effect on statin inhibition of 3H-thymidine uptake” value [4] was “partially reversed” and the “effect on statin-induced TUNEL-positive cells (proapoptotic effect)” value [5] was “decrease”.
